Activity calls are given as the source filed them. No cut-off for these calls is given here.
Columns and labels:
Plasmodium falciparum [1] = experiment: Antiplasmodial activity against synchronized ring stage Plasmodium falciparum Dd2 infected in human erythrocytes assessed as reduction in parasite growth incubated for 72 hrs by Giemsa staining based light microscopic method; assay type: functional, organism-based; details: Dd2, Erythrocyte
HEK-293T = experiment: Cytotoxicity against human HEK293T cells assessed as reduction in cell viability incubated for 72 hrs by cell titer glo assay; assay type: cell-based
[2] = Selectivity index, ratio of IC50 for cytotoxicity against human HEK293T cells assessed to IC50 for antiplasmodial activity against synchronized ring stage Plasmodium falciparum 3D7 infected in human erythrocytes; assay type: toxicity, cell-based; details: read-out: Ratio IC50
Plasmodium yoelii [3] = experiment: Antiplasmodial activity against blood stage Plasmodium yoelii infected in Balb/c mouse assessed as reduction in parasitemia at 10 to 30 mg/kg, ip QD for 5 consecutive days and measured on day 20 by microscopic analysis; assay type: functional, organism-based; details: dose 10-30 mg/kg, time 5.0 day
Plasmodium yoelii [4] = experiment: Antiplasmodial activity against blood stage Plasmodium yoelii infected in Balb/c mouse assessed as reduction in parasitemia at 60 mg/kg, ip QD for 5 consecutive days and measured on day 30 by microscopic analysis; assay type: functional, organism-based; details: time 5.0 day
[5] = Toxicity in Balb/c mouse infected with sporozoites liver stage Plasmodium berghei assessed as animal death at 30 mg/kg, ip administered as single dose and measured upto 96 hrs; assay type: organism-based; details: in vivo
Plasmodium falciparum [6] = experiment: Inhibition of Plasmodium falciparum HDAC assessed as hyperacetylation of histone H3 at 20 times IC50 incubated for 4 hrs by Western blot analysis
Plasmodium falciparum [7] = experiment: (§1) Antimalarial activity against synchronized schizont stage transgenic Plasmodium falciparum 3D7 with C-terminal 3xTY1-fused HDAC1 knockdown assessed as parasite growth inhibition pretreated with glucosamine followed by compound treatment and incubated for 4 hrs followed by compound washout for thrice and subsequent culturing for 68 hrs by SYBR Green 1 staining based analysis; assay type: functional, organism-based
Plasmodium falciparum [8] = experiment: as §1, with “glmS-fused” for “3xTY1-fused”; assay type: functional, organism-based
Plasmodium falciparum [9] = experiment: as §1, with “glmS-fused HDAC2” for “3xTY1-fused HDAC1”; assay type: functional, organism-based
[10] = molecular target: Histone deacetylase 3/Nuclear receptor corepressor 2 (HDAC3/NCoR2) (Homo sapiens, UniProt O15379); experiment: Inhibition of human C-terminal His-tagged HDAC3/N-terminal GST-tagged NCOR2 expressed in baculovirus infected Sf9 cells using Ac-peptide as substrate preincubated for 15 mins followed by substrate and trypsin addition and further incubated for 60 mins
[11] = molecular target: T1, Protein deacetylase HDAC6 (Homo sapiens, UniProt Q9UBN7); experiment: Inhibition of human HDAC6 using Ac-peptide as substrate preincubated for 15 mins followed by substrate and trypsin addition and further incubated for 60 mins
T1 sequence (Q9UBN7 whole entry): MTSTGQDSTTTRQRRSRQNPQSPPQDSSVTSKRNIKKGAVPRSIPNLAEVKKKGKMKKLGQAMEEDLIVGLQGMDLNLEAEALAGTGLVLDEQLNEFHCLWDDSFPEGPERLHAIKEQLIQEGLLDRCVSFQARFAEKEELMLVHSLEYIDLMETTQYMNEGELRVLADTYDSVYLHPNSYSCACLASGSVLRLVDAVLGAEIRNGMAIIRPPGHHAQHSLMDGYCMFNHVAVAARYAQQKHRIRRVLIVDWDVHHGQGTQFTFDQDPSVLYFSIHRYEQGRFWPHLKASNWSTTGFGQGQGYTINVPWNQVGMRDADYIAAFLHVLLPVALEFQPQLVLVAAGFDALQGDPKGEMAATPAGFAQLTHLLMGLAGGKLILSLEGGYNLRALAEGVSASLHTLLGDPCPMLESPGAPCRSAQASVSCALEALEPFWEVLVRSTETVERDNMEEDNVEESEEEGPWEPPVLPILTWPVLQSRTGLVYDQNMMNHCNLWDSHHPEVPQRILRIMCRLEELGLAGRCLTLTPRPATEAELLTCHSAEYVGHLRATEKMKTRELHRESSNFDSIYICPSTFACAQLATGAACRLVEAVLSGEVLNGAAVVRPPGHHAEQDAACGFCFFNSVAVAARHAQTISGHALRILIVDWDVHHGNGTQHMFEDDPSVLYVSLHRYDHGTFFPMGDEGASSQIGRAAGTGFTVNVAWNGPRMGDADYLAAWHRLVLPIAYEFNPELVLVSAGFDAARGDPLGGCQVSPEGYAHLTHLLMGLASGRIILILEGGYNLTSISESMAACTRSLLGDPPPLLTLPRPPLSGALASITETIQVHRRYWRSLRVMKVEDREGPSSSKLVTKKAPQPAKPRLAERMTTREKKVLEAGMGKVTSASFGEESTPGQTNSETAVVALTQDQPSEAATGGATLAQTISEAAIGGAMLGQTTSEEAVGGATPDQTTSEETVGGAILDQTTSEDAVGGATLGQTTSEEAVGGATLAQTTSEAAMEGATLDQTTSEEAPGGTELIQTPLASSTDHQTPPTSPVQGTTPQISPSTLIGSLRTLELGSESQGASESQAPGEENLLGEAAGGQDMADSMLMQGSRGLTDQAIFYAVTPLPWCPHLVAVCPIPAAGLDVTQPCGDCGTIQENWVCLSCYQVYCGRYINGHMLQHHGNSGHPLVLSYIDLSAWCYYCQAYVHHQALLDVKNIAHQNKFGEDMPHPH

[12] = Half life in Balb/c mouse at 5 mg/kg, ip administered as single dose measured upto 24 hrs by LC-MS/MS analysis; assay type: ADME, organism-based; details: in vivo
[13] = AUC (0 to t) in Balb/c mouse at 2 mg/kg, iv administered as single dose measured upto 24 hrs by LC-MS/MS analysis; assay type: ADME, organism-based; set-up: route intravenous, dose 2 mg/kg, time <=24; details: in vivo
[14] = AUC (0 to t) in Balb/c mouse at 5 mg/kg, ip administered as single dose measured upto 24 hrs by LC-MS/MS analysis; assay type: ADME, organism-based; set-up: route intraperitoneal, dose 5 mg/kg, time <=24; details: in vivo
[15] = Apparent clearance during terminal phase in Balb/c mouse at 2 mg/kg, iv administered as single dose measured upto 24 hrs by LC-MS/MS analysis; assay type: ADME, organism-based; details: in vivo
[16] = Apparent clearance during terminal phase in Balb/c mouse at 5 mg/kg, ip administered as single dose measured upto 24 hrs by LC-MS/MS analysis; assay type: ADME, organism-based; details: in vivo, 5 mg/kg, 24 h

Histone deacetylase 3/Nuclear receptor corepressor 2 (HDAC3/NCoR2), sequence (O15379 whole entry): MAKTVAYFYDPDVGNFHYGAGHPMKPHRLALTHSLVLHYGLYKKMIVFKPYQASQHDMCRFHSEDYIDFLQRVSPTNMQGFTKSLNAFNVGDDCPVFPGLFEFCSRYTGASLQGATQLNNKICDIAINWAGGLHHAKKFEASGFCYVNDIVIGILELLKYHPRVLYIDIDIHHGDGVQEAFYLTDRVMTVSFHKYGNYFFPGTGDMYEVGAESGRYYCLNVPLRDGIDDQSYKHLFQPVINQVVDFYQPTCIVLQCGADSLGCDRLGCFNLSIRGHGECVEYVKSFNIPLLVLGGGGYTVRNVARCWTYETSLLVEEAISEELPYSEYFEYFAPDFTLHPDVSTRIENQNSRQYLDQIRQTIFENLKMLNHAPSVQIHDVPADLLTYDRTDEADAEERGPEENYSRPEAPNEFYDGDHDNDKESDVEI
Histone deacetylase 3/Nuclear receptor corepressor 2 (HDAC3/NCoR2), sequence (Q9Y618 whole entry, further chain): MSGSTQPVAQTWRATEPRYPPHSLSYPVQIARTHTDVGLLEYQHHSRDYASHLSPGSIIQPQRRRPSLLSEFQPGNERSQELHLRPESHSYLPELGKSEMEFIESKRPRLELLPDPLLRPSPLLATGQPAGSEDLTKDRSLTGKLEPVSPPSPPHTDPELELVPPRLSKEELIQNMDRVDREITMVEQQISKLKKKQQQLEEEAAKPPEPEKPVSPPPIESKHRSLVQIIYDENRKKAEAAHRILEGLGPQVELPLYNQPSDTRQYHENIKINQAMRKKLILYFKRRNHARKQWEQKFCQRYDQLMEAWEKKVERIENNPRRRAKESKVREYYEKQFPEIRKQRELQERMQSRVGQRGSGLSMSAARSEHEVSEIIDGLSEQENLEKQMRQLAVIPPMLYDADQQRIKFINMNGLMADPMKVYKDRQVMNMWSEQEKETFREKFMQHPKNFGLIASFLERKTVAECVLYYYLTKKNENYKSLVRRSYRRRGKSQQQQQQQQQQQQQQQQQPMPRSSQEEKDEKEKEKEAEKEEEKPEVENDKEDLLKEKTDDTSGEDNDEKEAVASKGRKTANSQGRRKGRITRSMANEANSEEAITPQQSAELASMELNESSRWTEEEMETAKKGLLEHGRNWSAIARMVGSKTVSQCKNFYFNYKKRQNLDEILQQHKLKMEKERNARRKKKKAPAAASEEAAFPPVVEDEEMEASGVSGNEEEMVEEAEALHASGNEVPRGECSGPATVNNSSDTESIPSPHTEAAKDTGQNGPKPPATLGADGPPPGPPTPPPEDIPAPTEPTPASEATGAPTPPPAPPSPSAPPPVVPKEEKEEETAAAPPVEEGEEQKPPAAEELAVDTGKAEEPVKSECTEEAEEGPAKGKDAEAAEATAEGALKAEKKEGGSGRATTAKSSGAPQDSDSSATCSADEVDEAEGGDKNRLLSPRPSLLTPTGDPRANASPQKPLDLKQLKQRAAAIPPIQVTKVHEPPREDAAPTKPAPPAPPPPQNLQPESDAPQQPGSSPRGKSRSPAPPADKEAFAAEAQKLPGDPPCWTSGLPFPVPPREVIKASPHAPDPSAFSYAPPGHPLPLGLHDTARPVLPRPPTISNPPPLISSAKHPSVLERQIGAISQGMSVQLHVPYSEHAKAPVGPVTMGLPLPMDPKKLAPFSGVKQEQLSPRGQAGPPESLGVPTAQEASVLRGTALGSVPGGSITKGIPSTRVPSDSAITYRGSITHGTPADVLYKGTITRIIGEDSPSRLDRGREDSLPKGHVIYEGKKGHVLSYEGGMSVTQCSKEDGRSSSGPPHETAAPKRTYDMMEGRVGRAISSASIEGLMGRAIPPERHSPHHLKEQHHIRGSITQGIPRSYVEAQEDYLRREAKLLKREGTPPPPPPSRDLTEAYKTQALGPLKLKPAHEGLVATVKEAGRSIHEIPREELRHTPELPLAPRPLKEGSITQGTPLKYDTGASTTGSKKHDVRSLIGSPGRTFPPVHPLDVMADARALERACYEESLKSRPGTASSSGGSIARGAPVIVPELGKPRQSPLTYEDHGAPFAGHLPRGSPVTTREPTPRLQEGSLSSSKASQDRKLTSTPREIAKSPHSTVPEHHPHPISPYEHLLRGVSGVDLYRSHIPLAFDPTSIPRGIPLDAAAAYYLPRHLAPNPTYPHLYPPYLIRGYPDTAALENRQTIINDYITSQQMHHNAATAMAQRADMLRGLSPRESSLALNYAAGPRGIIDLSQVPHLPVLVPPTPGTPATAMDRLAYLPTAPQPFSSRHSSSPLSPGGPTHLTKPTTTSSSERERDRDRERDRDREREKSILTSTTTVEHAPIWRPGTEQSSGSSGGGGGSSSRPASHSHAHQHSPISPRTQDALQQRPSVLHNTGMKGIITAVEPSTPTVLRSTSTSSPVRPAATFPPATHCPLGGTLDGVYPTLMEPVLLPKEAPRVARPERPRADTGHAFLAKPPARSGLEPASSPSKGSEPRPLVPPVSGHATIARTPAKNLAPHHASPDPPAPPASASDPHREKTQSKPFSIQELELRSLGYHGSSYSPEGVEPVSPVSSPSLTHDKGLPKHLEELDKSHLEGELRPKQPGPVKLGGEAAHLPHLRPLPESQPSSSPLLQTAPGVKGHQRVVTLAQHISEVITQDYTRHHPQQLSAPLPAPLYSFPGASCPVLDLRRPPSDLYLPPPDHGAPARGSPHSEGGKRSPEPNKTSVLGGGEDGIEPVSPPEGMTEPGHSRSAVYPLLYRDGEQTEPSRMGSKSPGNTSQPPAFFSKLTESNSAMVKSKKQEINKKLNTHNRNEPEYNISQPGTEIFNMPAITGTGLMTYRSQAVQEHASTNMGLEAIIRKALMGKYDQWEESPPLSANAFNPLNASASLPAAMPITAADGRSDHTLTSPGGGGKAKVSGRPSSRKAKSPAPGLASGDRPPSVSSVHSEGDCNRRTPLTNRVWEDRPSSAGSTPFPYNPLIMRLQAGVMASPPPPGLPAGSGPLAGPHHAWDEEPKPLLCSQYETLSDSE

## Cl.O=C(NO)c1cnc(N2CCC3(CCN(Cc4c[nH]c5ccccc45)C3)CC2)nc1
Plasmodium falciparum [1]
  IC50: 0.0019 µM
HEK-293T
  IC50: 0.241 µM
[2]
  selectivity ratio: 75
Plasmodium yoelii [3]
  Activity: inactive
Plasmodium yoelii [4]
  Activity: Active
[5]
  Activity: Non-Toxic
Plasmodium falciparum [6]
  inhibition: Active
Plasmodium falciparum [7]
  IC50: 0.0323 µM
Plasmodium falciparum [8]
  IC50: 0.0043 µM
Plasmodium falciparum [9]
  IC50: 0.0695 µM
[10]
  IC50: 0.003 µM
[11]
  IC50: 0.032 µM
[12]
  t1/2: 26.4 min
[13]
  AUC(0-t) at 24 h: 117 ng·h/mL
[14]
  AUC(0-t) at 24 h: 81.9 ng·h/mL
[15]
  CLz/F: 280 mL/min/kg
[16]
  CLz/F: 567 mL/min/kg
